Measurements published in paper PMC11574045, “A cofactor-induced repressive type of transcription factor condensation can be induced by synthetic peptides to suppress tumorigenesis” (The EMBO Journal, 2024).
Several values for one entry are separate records, joined by “and”; a condition that tells them apart may be missing. Equal values may be shown once. Ends that are not written are not given here.

Columns and labels:
[1] = tested on: trypsin, actinase E, thermolysin, proteinase K, chymotrypsin-α; assay: Stability of peptides treated with proteases (gel); type: in vitro ADME; conditions: 30 °C for 1 h, gel read-out
From the text: To improve the stability and bioavailability of glup, we subjected it to disulfide-cyclization and C-terminal amidation to generate a macrocyclic version of the peptide and denoted it as GLUP (Fig. 5D). […] However, there were no significant differences in solubility, permeability, and TEAD4-binding affinity between GLUP and glup (Fig. 5F and Appendix Figs. S5F–H). […] These droplets rapidly dissolved when exposed to increased concentrations of NaCl (Fig. 5G, right).
Appendix Figure S5. Optimization of the Linker Peptide
A. Fluorescence polarization (FP) assay to detect the interaction of purified TEAD4 protein with FA M-labeled glup. mP, millipolarization (FP values). B. Microscale […]
protein with glup or glupmut. Kd values are shown. glupmut, an interaction-dead control peptide with the sequence […]. C. Crosslinking assay of TEAD4 […]
oligomerization in the presence of glup or glupmut after DSS treatment. D. Crosslinking assay of TEAD4 oligomerization in the presence of glup or GLUP with or without DSS treatment. E. Gels assessing protein stability levels of glup and GLUP after they were treated with indicated proteases. TR, trypsin; AE, actinase E; TH, thermolysin; PK, proteinase K; CH-α, chymotrypsin-α. […]
(right). […] The data were analyzed using one-way ANOVA, followed by the Tukey’s post-hoc test. *, p < 0.05; **, […]

[2] = tested on: GFP-TEAD4 condensates in HEK293FT cells; assay: GFP-TEAD4 condensate imaging, condensed fraction in cells; type: cell-based; conditions: HEK293FT, GLUP 10 μg/ml (5 μM) 12 h; individual cells, n = 9
[3] = tested on: HGC-27 cells; assay: Live-cell imaging of FAM-GLUP cellular entry; type: cell-based, human; conditions: FAM-GLUP 10 μg/ml (5 μM), HGC-27 live cells
Procedure: (§1) To confirm cellular entry of GLUP, we performed immunostaining of live cells treated with a fluorescein-labeled version of the peptide (FAM-GLUP). […] We then examined the potential effect of GLUP on TEAD4-mediated perturbation of DNA conformation.
(A) Representative live-cell images of HGC-27 cells treated with FAM (a fluorescent moiety)-labeled GLUP for indicated periods of time. FAM-GLUP: 10 μg/ml (5 μM). Scale bar, 10 μm. (B) Representative DAPI staining images of DNA showing its organization and appearance in the presence or absence of TEAD4 and GLUP as indicated. GLUP: 1 μg/ml (0.5 μM). Scale bar, 100 nm. (C) Representative N-SIM images of chromatin in GLUP-treated cells stained with DAPI. GLUP, 1 μg/ml (0.5 μM). Scale bar, 100 nm. (D) Representative images showing co-localization of GFP-TEAD4 with H3K27me3 in HEK293FT cells treated with GLUP together with 1,6-Hex. Scale bar, 1 μm. (E) Average enrichment profiles of H3K27me3 in GLUP-treated WT or TEAD4KO HGC-27 cells, stratified by gene length (three biological replicates, n = 3). Normalization of coverage using RPKM was performed over the genes and flanking region 1 kb in length. GLUP: 10 μg/ml (5 μM). […] The interval scale was 10 in both cases. See also Appendix Fig. S6. Source data are available online for this figure.

[4] = tested on: MKN-28 cells; type: cell-based, human; conditions: 48 h
Procedure: (§2) For cell viability assays, cells were seeded into 96-well plates overnight to attach them to the plates, and then treated with GLUP for 48 h. Cells incubated for indicated periods of time were analyzed using an ATP-based CellTiter-Lumi^TM Plus kit (Beyotime) according to the manufacturer’s instructions. The intracellular ATP contents were measured using a BioTek Synergy^TM NEO multi-detector microplate reader (Thermo). Cell viability was calculated using the equation cell viability (%) = [[value (test) − value (blank)] × [value (control) − value (blank)]] −1 × 100.

[5] = tested on: SNU-216 cells; type: cell-based, human; conditions: 48 h
Procedure: as §2

[6] = Toxicity analysis (blood testing, blood biochemistry, pathology); type: in vivo, mouse; conditions: BALB/c mice, GLUP 1 or 10 mg/kg i.p. every 2 days, 14 days
Procedure: Healthy BALB/c mice (~8 weeks, n = 5) were injected intraperitoneally with GLUP (1, 10 mg/kg, respectively, every 2 days), and mice of the control group were injected with saline (10 ml/kg, n = 5). The mice were continuously observed for 14 days after the administration and then sacrificed for routine blood testing (of white blood cells, red blood cells, platelets, lymphocytes, monocytes, and neutrophils), examination of the blood biochemistry (hemoglobin, albumin, glucose, creatinine, urea, AST, and ALT) and pathology examination.

[7] = target: T1, TEAD4-DNA (Homo sapiens, UniProt Q15561); assay: DAPI imaging of M-CAT DNA organization with purified proteins; type: biochemical; conditions: GLUP 1 μg/ml (0.5 μM)
T1 construct: His; made in house; host or cells: Escherichia coli BL21(DE3)
T1 sequence (Q15561 whole entry): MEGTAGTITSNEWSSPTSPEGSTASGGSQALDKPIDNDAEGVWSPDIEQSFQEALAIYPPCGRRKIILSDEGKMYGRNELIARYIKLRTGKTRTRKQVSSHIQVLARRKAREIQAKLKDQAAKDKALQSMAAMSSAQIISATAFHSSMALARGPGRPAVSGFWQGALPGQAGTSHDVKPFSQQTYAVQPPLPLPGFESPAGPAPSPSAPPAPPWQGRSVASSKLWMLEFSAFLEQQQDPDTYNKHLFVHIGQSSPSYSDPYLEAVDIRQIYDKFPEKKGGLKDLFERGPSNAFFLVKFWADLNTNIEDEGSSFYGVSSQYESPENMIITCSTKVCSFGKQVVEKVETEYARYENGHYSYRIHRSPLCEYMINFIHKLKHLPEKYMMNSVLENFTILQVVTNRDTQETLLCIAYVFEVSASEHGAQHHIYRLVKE
Procedure: LLPS is considered as principle for chromosome compartmentalization and condensation (Hildebrand and Dekker, [2020]; Shin et al, [2018]). […] To test this hypothesis, we used confocal microscopy to observe the morphology of M-CAT DNA (Fig. 4D). […] When VGLL4 protein was added into the mixture, the DNA chains appeared more aggregated and tangled (Fig. 4D).
as §1

[8] = tested on: CTGF; assay: RNA-scope of CTGF in tumor tissues; type: in vivo, mouse; conditions: tumors of GLUP-treated mice
Procedure: RNA-scope was performed according to manufacturer’s protocols (RNAscope Red Detection Kit, ACDbio, 322360). Briefly, the tumor sections (3 μm thickness) were obtained from MNU-generated gastric tumor tissues. The sections were deparaffinized, retrieved, and then hybridized with Ctgf probes following the manufacturer’s instructions (ACD, Hayward, CA, USA). Subsequently, the signal of hybridized probes was further visualized using RED dye-labeled probes. Finally, the samples were redyed, this time with hematoxylin, and mounted with VectaMount Permanent Mounting Medium (Vector Laboratories, Burlingame, CA, USA), and photographed using a Nikon Upright Fluorescence Microscope (Nikon, Japan). Positive and negative control probes were used for each experiment to help derive conclusions from the data.

RRVCVHFHFSLSLR-NH2 (C-terminus assumed) [glup]
Stability towards various proteases [1]: almost completely digested | Stability towards various proteases ([1]; listed as GLUP): remained intact | Condensed fraction of GFP-TEAD4 [2]: 25.1852% and 50.001% and 27.6986% and 34.6228% and 22.4908% and 43.1106% and 47.5218% and 38.4928% and 44.4447% | Cellular localisation ([3]; 30 min): in the cytoplasm but outside of the nucleus | Cellular localisation ([3]; 80 min): throughout in the cell including the nucleus | IC50 [4]: 6.7 µg/mL | IC50 [5]: 23.4 µg/mL | Blood findings upon GLUP treatment [6]: a range of blood biochemical abnormalities e.g., in numbers of platelets and neutrophils | Effect on TEAD4-mediated DNA conformation [7]: strongly promoted TEAD4-mediated formation of DNA aggregations and tangles | Expression of TEAD4 target gene CTGF in tumor tissue [8]: sharply decreased in a dose-dependent manner
